{"source": "patent US9884874B2", "about": "“Bromodomain-inhibiting compounds and pharmaceutical composition comprising same for preventing or treating a cancer” (KAINOS MEDICINE, INC., priority 2014, dated 2018)", "key": {"[1]": {"tested_on": "LnCAP (human prostatic adenocarcinoma cell line)", "assay": "Anti-proliferative activity test (CellTiter-Glo), LnCAP", "format": "cell-based", "settings": "first value of LnCAP/MV4-11 cell, read-out: Cell proliferation IC50 (LnCAP)", "procedure": "IC50 (uM) of the compounds obtained in Examples 1 to 18 against hematological cancer cells and solid tumors was measured for identifying anti-proliferative activities.\nA human prostatic adenocarcinoma cell line, LnCAP (ATCC®, CRL-1740) and human leukemia cell line MV4-11 (ATCC®, CRL-9591) were used to test the degrees of the compounds 1 to 18 in inhibiting the cancer cell growth. The testing cell concentration was adjusted to 6.7×10^3 cells/ml with a culture medium supplemented with 10% FBS, in the temperature of 37° C., 5% CO2 and 95% humidity. Culture media and FBS were purchased from GIBCO. 90 μL of cell suspensions thus obtained was added to two 96-well plates with the final cell density of 600 cells/well, followed by addition of 10 μL of culture medium to each well of plate. The plates were incubated overnight in a humidified incubator at 37° C. with 5% CO2.\nCompounds 1 to 18 were each dissolved with dimethylsulfoxide (DMSO) or phosphate buffer solution (PBS) as a stock solution, and 200× solutions of test compound (2 mM) using DMSO were prepared. Then, the DMSO solution thus obtained was diluted 20-fold with culture medium or PBS to obtain 10× working solution. 10 μL of 10× working solution (drug solution) was dispensed to each well (triplicate for each concentration). The final concentration of DMSO in culture medium was 0.5% [v/v].\nCell viability was determined using CellTiter-Glo® (CTG) assay. 100 μL of CellTiter-Glo® was added to the equal volume of the cultured cells to read luminescence in EnVision Multi Label Reader."}, "[2]": {"tested_on": "MOLM13 (acute myeloid Leukemia)", "assay": "Anti-proliferative activity, MOLM13", "format": "cell-based", "settings": "Homo sapiens, MOLM-13, read-out: Cell proliferation, IC50"}, "[3]": {"tested_on": "MOLT-4 (acute lymphoblastic leukemia)", "assay": "Anti-proliferative activity, MOLT-4", "format": "cell-based", "settings": "Homo sapiens, read-out: Cell proliferation, IC50"}, "human BRD4 bromodomain 1": {"target": "human BRD4 bromodomain 1 (Homo sapiens (Human), UniProt O60885)", "assay": "Bromodomain binding assay (BRD4 Alpha-screen)", "settings": "acetylated histone H4 peptide", "procedure": "Bromodomain binding assays were carried out in Reaction Biology (PA, USA) to test the degrees of the inventive compounds in inhibiting the human BRD4 bromodomain 1 by Alpha-screen assay method.\nRecombinant human BRD4 bromodomain 1 expressed in E. coli with N-terminal His-tag was used as the enzyme target.\nA synthetic peptide ([…]-GSGSK-biotin) containing 1 to 21th amino acids of histone H4 acetylated at lysine 5, 8, 12 and 16 and conjugated to biotin was purchased from Millipore.\nBRD4-1 (44 to 170th amino acids; Genbank Accession # NM_058243) was expressed in E. coli with N-terminal His-tag (see, Ni-NTA spin Kit Handbook (Qiagen), second edition, January, 2008). Nickel-Chelate ALPHA acceptor beads (Perkin Elmer) were used to specifically bind BRD4-1, and ALPHA streptavidin donor beads (Perkin Elmer) were used because they specifically recognized the biotinylated H4 peptide.\nBRD binding assays were performed in a mixture comprising 50 mM Hepes (pH7.5), 100 mM NaCl, 0.05% CHAPS, 0.1% BSA, and 1% DMSO. After an assay reaction time of 60 min at 25° C., binding was measured with streptavidin donor beads and nickel-chelate acceptor beads. ALPHA signal was detected on Enspire (Ex/Em=680/520-620 nm). IC50 values were calculated from the fit of the dose-response curves. All IC50 values represent geometric mean values of a minimum of four determinations. These assays generally produced results within 3-fold of the reported mean."}, "[4]": {"assay": "Pharmacokinetics in Sprague Dawley rats", "format": "in vivo, Sprague Dawley (SD) rats", "settings": "plasma, rat", "procedure": "For serum compound analysis, blood samples were collected by cardiac puncture over 24 hr time course. 20 μL of spiked plasma was added into a 96-well plate, adding ten volumes of internal standard (IS) in acetonitrile (ACN) to the obtained precipitated protein mixed thoroughly, centrifuged at 4,000 rpm for 10 min. 150 μL of supernatant thus obtained was transferred to another pre-labeled 96-well plate, mixed with 150 μL of water. 5 μL or 10 μL of the mixture was injected into the LC-MS system under the following conditions:\nColumn: API-4000+Waters UPLC (TCLM08);\nLower limit of quantification (LLOQ) was at 1 ng/mL. Pharmacokinetic parameters of half-life (T1/2), clearance (CL), maximum plasma concentration (Cmax), mean residence time (MRT) and bioavailability (F %), plasma exposure (AUC) of the compound were calculated using Phoenix WinNonlin 6.3 (non-compartmental model).\nAlso, pharmacokinetics of compound 1 was evaluated in Sprague Dawley (SD) rats following IV administration at 3 mg/kg or 10 mg/kg dose level, and PO administration at 3 mg/kg or 10 mg/kg dose level, respectively."}, "SK-LU-1 (adenocarcinoma)": {"tested_on": "SK-LU-1 (adenocarcinoma)", "assay": "Anti-proliferative activity, SK-LU-1", "format": "cell-based", "settings": "Homo sapiens, SKLU-1 (Adenocarcinoma), read-out: Cell proliferation, IC50"}, "[5]": {"tested_on": "RS4;11 (acute lymphoblastic leukemia)", "assay": "Anti-proliferative activity, RS4;11", "format": "cell-based", "settings": "Homo sapiens, read-out: Cell proliferation, IC50"}, "[6]": {"tested_on": "HL60 (acute promyelocytic leukemia)", "assay": "Anti-proliferative activity, HL60", "format": "cell-based", "settings": "Homo sapiens, HL-60, read-out: Cell proliferation, IC50"}, "Daudi (B lymphoma)": {"tested_on": "Daudi (B lymphoma)", "assay": "Anti-proliferative activity, Daudi", "format": "cell-based", "settings": "Homo sapiens, read-out: Cell proliferation, IC50"}}}
{"smiles": "COc1ccc2c(c1)C(c1ccc(Cl)cc1)=N[C@@H](COS(C)(=O)=O)c1nnc(C)n1-2", "note": "[Compound 1, (R)-(6-(4-chlorophenyl)-8-methoxy-1-methyl-4H-benzo[f]-[1,2,4]triazolo[4,3-a][1,4]diazepin-4-yl)methyl methanesulfonate]", "values": [{"measurement": "IC50", "setting": "[1]", "value": 470, "unit": "nM"}, {"measurement": "IC50", "setting": "[2]", "value": 1520, "unit": "nM"}, {"measurement": "IC50", "setting": "[3]", "value": 2630, "unit": "nM"}, {"measurement": "IC50", "setting": "human BRD4 bromodomain 1", "value": 190, "unit": "nM"}, {"measurement": "AUC", "setting": "[4]; IV, 3 mg/kg", "value": 2, "unit": "µM·h"}, {"measurement": "clearance", "setting": "[4]; IV, 3 mg/kg", "value": 54.8, "unit": "mL/min/kg"}, {"measurement": "AUC", "setting": "[4]; IV, 10 mg/kg", "value": 15.4, "unit": "µM·h"}, {"measurement": "MRT", "setting": "[4]; IV, 10 mg/kg", "value": 1.86, "unit": "h"}, {"measurement": "clearance", "setting": "[4]; IV, 10 mg/kg", "value": 24.9, "unit": "mL/min/kg"}, {"measurement": "AUC", "setting": "[4]; PO, 3 mg/kg", "value": 1, "unit": "µM·h"}, {"measurement": "bioavailability", "setting": "[4]; PO, 3 mg/kg", "value": 50.6, "unit": "%"}, {"measurement": "AUC", "setting": "[4]; PO, 10 mg/kg", "value": 13.6, "unit": "µM·h"}, {"measurement": "bioavailability", "setting": "[4]; PO, 10 mg/kg", "value": 88.6, "unit": "%"}, {"measurement": "IC50", "setting": "SK-LU-1 (adenocarcinoma)", "value": 6960, "unit": "nM"}, {"measurement": "IC50", "setting": "[5]", "value": 3140, "unit": "nM"}, {"measurement": "IC50", "setting": "[6]", "value": 1240, "unit": "nM"}, {"measurement": "IC50", "setting": "Daudi (B lymphoma)", "value": 5090, "unit": "nM"}]}
